Results published in PubChem BioAssay (NCI).
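A five-concentration, 48-hour dose response in 96-well plates underlies each endpoint, interpolated linearly between surrounding concentrations. GI50 = concentration required for 50% inhibition of growth. TGI: concentration producing complete growth inhibition.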

Legend:
Test in all cases: NCI-60 cell line screen, 48 h
[1] = test system: DU-145 prostate
[2] = test system: MDA-MB-435
[3] = test system: HS 578T breast
[4] = test system: NCI/ADR-RES ovarian
[5] = test system: MDA-N
[6] = test system: BT-549 breast
[7] = test system: MCF7 breast
[8] = test system: M19-MEL melanoma
[9] = test system: XF 498 CNS
[10] = test system: SNB-78 CNS
[11] = test system: DMS 273 small cell lung
[12] = test system: DMS 114 small cell lung
[13] = test system: RXF-631 renal
[14] = test system: HOP-18 NSCLC

## N#Cc1c(NC(=S)NC(=O)c2ccccc2)nc2c(c1-c1ccccc1)CCCC2
[1]
  TGI: > 100 µM
[2]
  TGI: > 100 µM
[3]
  TGI: 35 µM
[4]
  TGI: > 100 µM
[5]
  TGI: > 100 µM
[6]
  TGI: 96.1 µM
[7]
  TGI: > 100 µM

## CCC(C)C(=O)c1c(O)c(C/C=C(\C)CCC=C(C)C)c(O)c2c(C(O)CC)cc(=O)oc12 (centres undefined)
[8]
  TGI: 6.51 µM
[9]
  TGI: 4.53 µM
[10]
  TGI: 16.7 µM
[11]
  TGI: 8.29 µM
[12]
  TGI: 3.35 µM
[13]
  TGI: 14.2 µM

## Brc1ccccc1-c1ncc(-c2ccccc2)o1
[1]
  TGI: > 100 µM
[2]
  TGI: 60.4 µM
[3]
  TGI: 41 µM
[4]
  TGI: > 100 µM
[5]
  TGI: > 100 µM
[6]
  TGI: > 100 µM
[7]
  TGI: > 100 µM

## O=[N+]([O-])c1cn[n+]([O-])c2ccccc12
[1]
  TGI: 3.79 µM
[2]
  TGI: 27.8 µM
[3]
  TGI: 29.1 µM
[4]
  TGI: 19.2 µM
[5]
  TGI: 27.5 µM
[6]
  TGI: 18.8 µM
[7]
  TGI: 50.1 µM

## CC[n+]1c(/C=C/c2ccc(N(CCCl)CCCl)cc2)ccc2cc(NC(=O)/C=C/c3ccccc3)ccc21
[1]
  TGI: 1.64 µM
[14]
  TGI: 13 µM
[10]
  TGI: 16 µM
[2]
  TGI: 1.07 µM
[3]
  TGI: 1.25 µM
[12]
  TGI: 13.8 µM
[4]
  TGI: > 100 µM
[5]
  TGI: 1.7 µM
[6]
  TGI: 1.58 µM
[7]
  TGI: 1.24 µM

## COc1cc(C2c3cc4c(cc3[C@@H](Nc3cccc(C(C)=O)c3)C3COC(=O)[C@H]23)OCO4)cc(OC)c1O (some centres undefined)
[8]
  TGI: > 57.7 µM
[14]
  TGI: 54.3 µM
[9]
  TGI: 14.9 µM
[10]
  TGI: > 100 µM
[11]
  TGI: 1.81 µM
[12]
  TGI: 4.77 µM
[4]
  TGI: > 100 µM
[7]
  TGI: 28.2 µM

## Cn1c(-c2ccc(/C=N\N3CCN(/N=C/c4ccc(-c5c[n+]6ccccc6n5C)cc4)CC3)cc2)c[n+]2ccccc12
[1]
  TGI: > 100 µM
[2]
  TGI: > 100 µM
[3]
  TGI: 92.8 µM
[4]
  TGI: > 100 µM
[5]
  TGI: > 100 µM
[6]
  TGI: > 100 µM
[7]
  TGI: > 100 µM

## COc1ccc(-c2cc(N3CCN(c4ccccc4)CC3)c(C#N)c(=O)o2)cc1
[14]
  TGI: 62.2 µM
[9]
  TGI: 19.8 µM
[10]
  TGI: 59 µM
[11]
  TGI: > 100 µM
[12]
  TGI: > 100 µM
[13]
  TGI: > 100 µM

## COc1ccc(NC(=O)/C(=C/c2ccc(N(CCC#N)CCC#N)cc2)NC(=O)c2cc([N+](=O)[O-])ccc2Cl)cc1
[8]
  TGI: > 100 µM
[14]
  TGI: > 100 µM
[9]
  TGI: > 100 µM
[10]
  TGI: > 100 µM
[11]
  TGI: > 100 µM
[13]
  TGI: > 100 µM

## COc1ccc(NC(=O)/C(CC2=Nc3ccc([N+](=O)[O-])cc3NC2O)=N\NC(=O)C[N+](C)(C)C)c(OC)c1 (centres undefined)
[1]
  TGI: > 100 µM
[2]
  TGI: > 100 µM
[3]
  TGI: > 100 µM
[4]
  TGI: > 100 µM
[5]
  TGI: > 100 µM
[6]
  TGI: > 100 µM
[7]
  TGI: > 100 µM

## NCc1ccc(C(=O)O)cc1
[1]
  TGI: > 100 µM
[2]
  TGI: > 100 µM
[4]
  TGI: > 100 µM
[5]
  TGI: > 100 µM
[6]
  TGI: > 100 µM

## Cc1nc2ccccc2c(=O)[nH]1
[8]
  TGI: > 100 µM
[14]
  TGI: > 100 µM
[9]
  TGI: > 100 µM
[10]
  TGI: > 100 µM
[13]
  TGI: > 100 µM

## ClCc1c(Cl)c(Cl)c(Cl)c(CCl)c1Cl
[1]
  GI50: 1.98 µM
  TGI: 3.99 µM
[2]
  GI50: 2.16 µM
  TGI: 5.68 µM
[3]
  GI50: 2.15 µM
  TGI: 5.61 µM
[4]
  GI50: 3.5 µM
  TGI: 17.3 µM
[7]
  GI50: 1.73 µM
  TGI: 3.7 µM

## NCc1ccccc1C1CSCSC1
[8]
  TGI: > 100 µM
[9]
  TGI: > 100 µM
[10]
  TGI: > 100 µM
[11]
  TGI: > 100 µM
[12]
  TGI: > 100 µM

## Cc1ccc(S(N)(=O)=O)cc1
[1]
  TGI: > 1000 µM
[2]
  TGI: > 1000 µM
[3]
  TGI: > 1000 µM
[4]
  TGI: > 1000 µM
[5]
  TGI: > 1000 µM
[6]
  TGI: > 1000 µM
[7]
  TGI: > 1000 µM

## CCO/N=[N+](\[O-])N(CC)CC
[8]
  TGI: > 100 µM
[9]
  TGI: > 100 µM
[10]
  TGI: > 100 µM
[11]
  TGI: > 100 µM
[13]
  TGI: > 100 µM

## CC(C)C[P+](c1ccccc1)(c1ccccc1)c1ccccc1
[1]
  TGI: > 100 µM
[2]
  TGI: 25 µM
[3]
  TGI: > 100 µM
[4]
  TGI: > 100 µM
[6]
  TGI: > 100 µM
[7]
  TGI: > 100 µM

## CC(C)(Br)C1(O)CCCN1C(=O)c1ccccc1 (centres undefined)
[8]
  TGI: > 100 µM
[14]
  TGI: > 100 µM
[10]
  TGI: > 100 µM
[11]
  TGI: > 100 µM
[13]
  TGI: > 100 µM

## CCOC(=O)/C=C(\C)c1ccc(OC)cc1
[14]
  TGI: > 100 µM
[9]
  TGI: > 100 µM
[10]
  TGI: > 100 µM
[11]
  TGI: > 100 µM
[12]
  TGI: > 100 µM
